Test results reported in PubChem BioAssay (NCI).
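Method: 48-hour compound exposure of cells in 96-well plates, five concentrations, linear interpolation of endpoints. GI50 = concentration required for 50% inhibition of growth. TGI: concentration producing complete growth inhibition.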

Tests used:
Assay in all cases: growth of human tumour cells (NCI), 48 h
SF-268 CNS = test system: SF-268 CNS
NCI-H226 lung = test system: NCI-H226 lung
COLO 205 colon = test system: COLO 205 colon
OVCAR-8 ovarian = test system: OVCAR-8 ovarian
M14 melanoma = test system: M14 melanoma
CAKI-1 renal = test system: CAKI-1 renal
MOLT-4 leukemia = test system: MOLT-4 leukemia
NCI-H522 lung = test system: NCI-H522 lung
SR leukemia = test system: SR leukemia
HS 578T breast = test system: HS 578T breast

| SMILES | TGI (SF-268 CNS) | TGI (NCI-H226 lung) | TGI (COLO 205 colon) | TGI (OVCAR-8 ovarian) | TGI (M14 melanoma) | TGI (CAKI-1 renal) | TGI (MOLT-4 leukemia) | TGI (NCI-H522 lung) | TGI (SR leukemia) | TGI (HS 578T breast) | GI50 (SF-268 CNS) | GI50 (M14 melanoma) | GI50 (CAKI-1 renal) | GI50 (HS 578T breast) | GI50 (NCI-H226 lung) | GI50 (OVCAR-8 ovarian) | GI50 (MOLT-4 leukemia) | GI50 (NCI-H522 lung) | GI50 (SR leukemia) |
| --- | --- | --- | --- | --- | --- | --- | --- | --- | --- | --- | --- | --- | --- | --- | --- | --- | --- | --- | --- |
| COc1cc(N)c2[nH]c3c(C)ccc(C)c3c2c1 | > 100 µM | > 100 µM | > 100 µM | > 100 µM | > 100 µM | > 100 µM | > 100 µM | > 100 µM | > 100 µM | – | – | – | – | – | – | – | – | – | – |
| COC(=O)c1ccccc1NC(=S)NN(C)C | – | > 100 µM | > 100 µM | > 100 µM | > 100 µM | > 100 µM | > 100 µM | > 100 µM | > 100 µM | > 100 µM | – | – | – | – | – | – | – | – | – |
| C=CC(C)(C)C1(CC(OC)OC)C(=O)N(C)c2ccccc21 (stereo not given) | > 25 µM | > 25 µM | > 25 µM | > 25 µM | > 25 µM | > 25 µM | – | – | > 25 µM | > 25 µM | – | – | – | – | – | – | – | – | – |
| Cn1cc(-c2nc(-c3c[nH]c4ccncc34)cs2)c2ccccc21 | 3.43 µM | – | – | – | 3.4 µM | 2.85 µM | – | – | – | 4.4 µM | 1.79 µM | 1.74 µM | 1.48 µM | 1.93 µM | – | – | – | – | – |
| CCCCOc1c(C(=O)O)cc(Br)cc1C(=O)O | > 100 µM | > 100 µM | > 100 µM | > 100 µM | > 100 µM | > 100 µM | > 100 µM | > 100 µM | – | – | – | – | – | – | – | – | – | – | – |
| N=S(=O)(c1ccccc1)c1ccccc1 | > 100 µM | > 100 µM | > 100 µM | > 100 µM | > 100 µM | > 100 µM | > 100 µM | > 100 µM | > 100 µM | – | – | – | – | – | – | – | – | – | – |
| CCCCCCCCCCCCCCCCNCC(O)CN (stereo not given) | 12.9 µM | 25.6 µM | 3.81 µM | 12.3 µM | – | 30 µM | 4.87 µM | 33.2 µM | – | – | – | – | – | – | – | – | – | – | – |
| Nc1ncnc2c1ncn2CCCC(c1ccccc1)P(=O)(O)O (stereo not given) | > 100 µM | > 100 µM | > 100 µM | > 100 µM | – | 30.7 µM | – | > 100 µM | > 100 µM | – | – | – | – | – | – | – | – | – | – |
| N#C/C=c1/c2ccccc2n2nc3ccccc3c12 | 34 µM | – | 85.3 µM | > 100 µM | > 100 µM | > 100 µM | – | 38 µM | > 100 µM | > 100 µM | – | – | – | – | – | – | – | – | – |
| COC(=O)[C@H]1[C@@H](O)[C@@]2(O)c3c(OC)cc(OC)cc3O[C@@]2(c2ccc3c(c2)OCO3)[C@@H]1c1ccccc1 | 2.11 µM | 3.23 µM | 0.0686 µM | > 50 µM | 0.0414 µM | 0.264 µM | 0.0482 µM | 0.741 µM | – | 2.13 µM | – | – | – | – | – | – | – | – | – |
| COC(=O)[C@@H]1[C@H](O)CCC2=C(CC(=O)c3ccoc3)[C@H](C)CC[C@]21C | – | > 50 µM | > 50 µM | > 50 µM | > 50 µM | > 50 µM | – | – | – | > 50 µM | – | – | – | – | – | – | – | – | – |
| N=c1n(CC(=O)NC23CC4CC(CC(C4)C2)C3)c2ccccc2n1CC(=O)NC12CC3CC(CC(C3)C1)C2 | 3.72 µM | – | 3.49 µM | 3.13 µM | 3.38 µM | 24.3 µM | 6 µM | 3.3 µM | 4.51 µM | – | – | – | – | – | – | – | – | – | – |
| CCCc1n[nH]c(=O)n1N1C(=O)C=CC1=O | – | – | > 100 µM | – | > 100 µM | > 100 µM | > 100 µM | > 100 µM | > 100 µM | – | – | – | – | – | – | – | – | – | – |
| COc1cc(OCc2nc3cc(C(F)(F)F)ccc3nc2-c2ccccc2)cc(OC)c1OC | > 100 µM | > 100 µM | > 100 µM | > 100 µM | > 100 µM | > 100 µM | > 100 µM | – | > 100 µM | > 100 µM | – | – | – | – | – | – | – | – | – |
| CCn1c(-c2ccc(OC)cc2)nc2c1C(=O)c1ccccc1C2=O | > 100 µM | > 100 µM | > 100 µM | > 100 µM | > 100 µM | – | > 100 µM | > 100 µM | > 100 µM | > 100 µM | – | – | – | – | – | – | – | – | – |
| CCNC(=O)NNc1ncnc2c1c(-c1ccc(Cl)cc1)cn2-c1ccc(C)cc1 | 39 µM | 37.9 µM | 29.9 µM | 28.8 µM | 32.3 µM | 51.1 µM | 45.4 µM | 38.3 µM | 43.3 µM | – | – | – | – | – | – | – | – | – | – |
| N/C(=N\NC(=O)c1nc2ccccc2s1)c1ccccn1 | > 100 µM | – | 27.6 µM | > 47.2 µM | 23.6 µM | – | 18.7 µM | 44.6 µM | – | > 100 µM | – | – | – | – | – | – | – | – | – |
| C=CCNc1nc(O)c(/C=C2\C=Nc3ncccc32)s1 | 6.92 µM | 21.6 µM | – | 10.3 µM | 13.1 µM | > 100 µM | 7.95 µM | 4.85 µM | 88.3 µM | 9.66 µM | 2.1 µM | 3.45 µM | 2.22 µM | 2.03 µM | 1.99 µM | 3.41 µM | 2.64 µM | 0.725 µM | 0.408 µM |
| C[C@@H](NC(=O)[C@@H]1C[C@]1(C)CO)c1cccc2ccccc12 | > 100 µM | > 100 µM | > 100 µM | > 100 µM | > 100 µM | > 100 µM | > 100 µM | – | > 100 µM | > 100 µM | – | – | – | – | – | – | – | – | – |
| Clc1ccc2nc3n[nH]c(Cl)c3nc2c1 | > 100 µM | – | > 100 µM | > 100 µM | > 100 µM | > 100 µM | > 100 µM | – | – | 63.6 µM | – | – | – | – | – | – | – | – | – |
| C[N+](C)(C)CCOC(=O)/C=C/c1cnc[nH]1 | > 500 µM | > 500 µM | > 500 µM | > 500 µM | – | > 500 µM | > 316 µM | > 500 µM | – | – | – | – | – | – | – | – | – | – | – |
| CC(=O)OC12CC(C(F)(F)F)(C(F)(F)F)OC1(OC(C)=O)CC(C(F)(F)F)(C(F)(F)F)O2 (stereo not given) | 6.37 µM | > 100 µM | 25.6 µM | > 100 µM | > 100 µM | – | 67.6 µM | > 100 µM | 82.1 µM | > 100 µM | – | – | – | – | – | – | – | – | – |
| O=C(NC12CC3CC(CC(C3)C1)C2)C(=O)c1c[nH]c2ccc(Br)cc12 | 34.2 µM | 41.8 µM | 45.1 µM | 87.3 µM | 31.4 µM | > 100 µM | 44.2 µM | > 100 µM | 29.6 µM | – | – | – | – | – | – | – | – | – | – |
